From ChEMBL document CHEMBL3046954, “Identification of important structural features of thiazolo[4,5-d]pyrimidines required for potent antifungal activity” (2011)
Converted amounts (≈) assume the structure as drawn.

Legend:
Assay type in all cases: functional
Aspergillus clavatus = assay: Antifungal activity against Aspergillus clavatus MTCC 1323 by broth dilution method
Aspergillus niger = assay: Antifungal activity against Aspergillus niger MTCC 282 by broth dilution method
Candida albicans = assay: Antifungal activity against Candida albicans MTCC 227 by broth dilution method

| Molecule | MIC (Aspergillus clavatus) [µg/mL] | MIC (Aspergillus niger) [µg/mL] | MIC (Candida albicans) [µg/mL] |
| --- | --- | --- | --- |
| COc1ccc(Nc2nc3c(sc(=S)n3-c3ccccc3)c(=O)n2-c2ccc(OC)cc2)cc1 | 0.2 (≈ 0.409 µM) | 0.8 (≈ 1.64 µM) | 0.5 (≈ 1.02 µM) |
| COc1ccc(-n2c(=S)sc3c(=O)n(-c4ccc(Br)cc4)c(Nc4ccc(Br)cc4)nc32)cc1 | 0.2 (≈ 0.324 µM) | 4 (≈ 6.49 µM) | 0.8 (≈ 1.3 µM) |
| COc1ccc(Nc2nc3c(sc(=S)n3-c3ccc(F)c(Cl)c3)c(=O)n2-c2ccc(OC)cc2)cc1 | 0.2 (≈ 0.37 µM) | 4 (≈ 7.39 µM) | 0.4 (≈ 0.739 µM) |
| O=c1c2sc(=S)n(-c3ccc(Cl)c(Cl)c3)c2nc(Nc2ccc(Br)cc2)n1-c1ccc(Br)cc1 | 16 (≈ 24.4 µM) | 4 (≈ 6.1 µM) | 0.8 (≈ 1.22 µM) |
| CCn1c(=S)sc2c(=O)n(-c3ccc(OC)cc3)c(Nc3ccc(OC)cc3)nc21 | 16 (≈ 36.3 µM) | 0.8 (≈ 1.82 µM) | 2 (≈ 4.54 µM) |
| COc1ccc(Nc2nc3c(sc(=S)n3-c3ccc(Cl)c(Cl)c3)c(=O)n2-c2ccc(OC)cc2)cc1 | 0.8 (≈ 1.44 µM) | 4 (≈ 7.18 µM) | 0.8 (≈ 1.44 µM) |
| O=c1c2sc(=S)n(-c3ccccc3)c2nc(Nc2ccccc2)n1-c1ccccc1 | 25.6 (≈ 59.7 µM) | 25.6 (≈ 59.7 µM) | 4 (≈ 9.33 µM) |
| O=c1c2sc(=S)n(-c3ccc(F)c(Cl)c3)c2nc(Nc2ccc(Br)cc2)n1-c1ccc(Br)cc1 | 4 (≈ 6.26 µM) | 4 (≈ 6.26 µM) | 4 (≈ 6.26 µM) |
| Cc1cccc(C)c1Nc1nc2c(sc(=S)n2-c2ccccc2)c(=O)n1-c1c(C)cccc1C | 4 (≈ 8.25 µM) | 25.6 (≈ 52.8 µM) | 4 (≈ 8.25 µM) |
| COc1ccc(-n2c(=S)sc3c(=O)n(-c4ccccc4OC)c(Nc4ccccc4OC)nc32)cc1 | 25.6 (≈ 49.4 µM) | 0.4 (≈ 0.771 µM) | 12.8 (≈ 24.7 µM) |
| COc1ccc(Nc2nc3c(sc(=S)n3-c3ccccc3OC)c(=O)n2-c2ccc(OC)cc2)cc1 | 0.8 (≈ 1.54 µM) | 4 (≈ 7.71 µM) | 16 (≈ 30.9 µM) |
| OC(Cn1cncn1)(Cn1cncn1)c1ccc(F)cc1F [FLUCONAZOLE] | 16 (≈ 52.2 µM) | 16 (≈ 52.2 µM) | 0.5 (≈ 1.63 µM) |
| NYSTATIN | 7 | 7 | 8 |
| COc1ccccc1-n1c(=S)sc2c(=O)n(-c3c(C)cccc3C)c(Nc3c(C)cccc3C)nc21 | 4 (≈ 7.77 µM) | 4 (≈ 7.77 µM) | 4 (≈ 7.77 µM) |
| COc1ccc(Nc2nc3c(sc(=S)n3-c3ccc(Br)cc3)c(=O)n2-c2ccc(OC)cc2)cc1 | 12.8 (≈ 22.6 µM) | 0.4 (≈ 0.705 µM) | 4 (≈ 7.05 µM) |
| COc1ccc(-n2c(=S)sc3c(=O)n(-c4ccc(F)cc4)c(Nc4ccc(F)cc4)nc32)cc1 | 0.4 (≈ 0.809 µM) | 0.5 (≈ 1.01 µM) | 0.4 (≈ 0.809 µM) |
| COc1ccccc1Nc1nc2c(sc(=S)n2-c2ccccc2)c(=O)n1-c1ccccc1OC | 12.8 (≈ 26.2 µM) | 12.8 (≈ 26.2 µM) | 4 (≈ 8.19 µM) |
| Cc1ccc(Nc2nc3c(sc(=S)n3-c3ccccc3)c(=O)n2-c2ccc(C)cc2)cc1 | 0.8 (≈ 1.75 µM) | 12.8 (≈ 28 µM) | 0.8 (≈ 1.75 µM) |
| COc1ccc(Nc2nc3c(sc(=S)n3-c3ccc(OC)cc3)c(=O)n2-c2ccc(OC)cc2)cc1 | 4 (≈ 7.71 µM) | 0.5 (≈ 0.964 µM) | 4 (≈ 7.71 µM) |
